The text below walks through data of US8093060B2, “Multisite phosphorylated peptide (protein) recognizing compound and detection method, imaging method, alzheimer's disease diagnosing method and reagent kit using the same” (Canon Kabushiki Kaisha, priority 2008, dated 2012).

Molecules are shown by their SMILES.

In assay [1] the test system is tau proteins on a tissue section. In words: Fluorescence staining of AD human hippocampal tissue sections treated with dephosphorylating enzyme (PP2A). The note with it: PP2A 0.5 units/50 μL, 37° C., 24 h. How it is done:
To investigate whether an excessively phosphorylated tau protein in brain tissues can be detected, a fluorescence staining experiment of hippocampal tissue sections from a human brain affected by Alzheimer (AD) and a normal brain was performed using BODIPY-Zn(Dpa). […]
Before staining, the sections were treated with a dephosphorylating enzyme (PP2A: 0.5 units/50 μL, 37° C., 24 h), and a fluorescence staining experiment for hippocampal tissue sections was performed according to the procedure in Example 2(12). […] Fluorescence dots observed in the BODIPY-Zn(Dpa) staining and the AT8 staining disappeared after dephosphorylating tau proteins on tissues with PP2A. […] The fluorescence dots in the BODIPY-Zn(Dpa) staining were detected depending on the phosphorylation of tau proteins.

For assay [2], the target named is T1, nonphosphorylated Tau aggregate (n-Tau) (Homo sapiens, UniProt P10636).
T1 construct: made in house; host or cells: Escherichia coli
T1 sequence (P10636 1-441 isoform P10636-8): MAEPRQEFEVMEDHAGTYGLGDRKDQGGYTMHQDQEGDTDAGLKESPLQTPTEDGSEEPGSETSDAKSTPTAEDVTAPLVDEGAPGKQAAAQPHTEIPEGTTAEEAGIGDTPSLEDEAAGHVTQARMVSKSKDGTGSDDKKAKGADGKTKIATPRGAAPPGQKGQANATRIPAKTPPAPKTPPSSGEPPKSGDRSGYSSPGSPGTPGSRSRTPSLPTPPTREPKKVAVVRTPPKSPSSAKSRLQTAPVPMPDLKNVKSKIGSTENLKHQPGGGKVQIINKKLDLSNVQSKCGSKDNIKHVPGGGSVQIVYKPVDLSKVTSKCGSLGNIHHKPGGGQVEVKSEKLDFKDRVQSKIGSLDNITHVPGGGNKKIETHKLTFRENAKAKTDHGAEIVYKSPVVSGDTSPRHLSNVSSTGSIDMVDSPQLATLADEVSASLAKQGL
Description: Fluorescence staining of nonphosphorylated tau aggregate prepared in vitro. Type of assay: binding. The note with it: 10 μM dye. How it is done: Tau proteins (8 μM) expressed by Escherichia coli and heparin (1.6 μM) were incubated at 37° C. for 20 days to prepare a tau aggregate. A phosphorylated tau aggregate was similarly prepared using tau proteins phosphorylated with GSK-3β in vitro. The results of Pro-Q diamond staining after performing SDS-PAGE confirmed that the in-vitro phosphorylation was performed with a phosphorylation degree of 6 mol P/mol Tau.
10 μM BODIPY-Zn(Dpa) or 10 μM thioflavine T (may be referred to as ThT) were added to the prepared tau aggregate or phosphorylated tau aggregate. After the addition, the mixture was washed twice with 0.5 mM Zn(NO3)2, and a suspension (0.5 μL) of the stained phosphorylated tau aggregate was air-dried on a cover glass and observed under a confocal laser scanning microscope (OLYMPUS FV-1000, Obj. lens 100×).

The subject of assay [3] is GSK-3β. In words: Kinase assay using BODIPY-Zn(Dpa), Tau1P and GSK-3β. It counts as biochemical. As to the method:
A kinase assay was performed using Tau1P, a phosphorylated partial sequence peptide of a tau protein, BODIPY-Zn(Dpa) and GSK-3β, which phosphorylates the 231st threonine. The experiment conditions were as follows: 20 μM Tau1P, 20 μM BODIPY-Zn(Dpa), 100 μM ATP, 2 μg of BSA, 50 mM HEPES, 10 mM MgCl2, 10 mM DTT, 2 μM EDTA; pH 7.2; 30° C.; and an excitation wavelength of 540 nm. […] This is a result of phosphorylation of the 231st threonine in Tau1P by GSK-3β, recognition of the phosphorylation by BODIPY-Zn(Dpa) and the resulting interaction.

Assay [4] deals with T2, Tau0P (Homo sapiens, UniProt P10636).
T2 construct: made in house; host or cells: chemical solid-phase synthesis
Description: Fluorescence titration of BODIPY-Zn(Dpa) with Tau0P. Type of assay: binding. How it is done:
The phosphorylated peptide-recognizing ability of BODIPY-Zn(Dpa) compound 9 (hereinafter referred to as BODIPY-Zn(Dpa)) was evaluated by measuring fluorescence spectra. Measurement was performed under the following conditions: [BODIPY-Zn(Dpa)]=5 μM; pH 7.2; 50 mM HEPES buffer; and 25° C. The excitation wavelength was λex=530 nm. […] When Tau2P was excessively added, this change reached saturation. The […] calculated from the fluorescence changes was 2.75×10^5 M^−1.

Assay [5] deals with T3, phosphorylated tau aggregate (Homo sapiens, UniProt P10636).
T3 construct: made in house; host or cells: Escherichia coli
T3 sequence (P10636 1-441 isoform P10636-8): as above
Description: Fluorescence titration of phosphorylated tau aggregate against 100 nM BODIPY-Zn(Dpa). Type of assay: binding. The note with it: compared with tau aggregate and amyloid β aggregate. How it is done: The ranges of concentrations at which a phosphorylated tau aggregate, a tau aggregate, and an amyloid β aggregate interact with BODIPY-Zn(Dpa) were examined by titration. Titration was performed in the range of tau concentrations of 0 to 320 nM (0 to 14 μg/mL) against 100 nM of BODIPY-Zn(Dpa). Using a solvent obtained by adding 10% DMSO and 10 μM Zn(NO3)2 to HBS (10 mM HEPES (pH 7.4), 150 mM NaCl), the solution was incubated at 37° C. for 60 min, and fluorescence was measured (excitation wavelength, 490 nm; fluorescence wavelength, 545 nm).

With `CC1=C(c2ccc(CN(C)Cc3ccccn3)nc2)C(C)=[N+]2C1=C(c1cc(OCCOCCOCCO)cc(OCCOCCOCCO)c1)c1c(C)c(-c3ccc(CN(C)Cc4ccccn4)nc3)c(C)n1[B-]2(F)F.O=[N+]([O-])[O-].O=[N+]([O-])[O-].O=[N+]([O-])[O-].O=[N+]([O-])[O-].[Zn+2].[Zn+2]` [BODIPY-Zn(Dpa)], in assay [1], the “fluorescence dots in staining image after PP2A treatment” value is on record as “disappeared” and the “fluorescence intensity after PP2A treatment compared with before” value is “significantly decreased”. In addition, the staining of aggregate result in assay [2] is given as “is not observed”. The “fluorescence intensity change with time” value in assay [3] (20 μM Tau1P, 20 μM BODIPY-Zn(Dpa), 100 μM ATP, 30° C.) was “increase in fluorescence intensity with time was confirmed”. The “kinase concentration dependence of fluorescence intensity” value in assay [3] (GSK-3β concentration varied) was “concentration-dependence of GSK-3β was observed”. The “I/I0 - 1 at saturation” value in assay [4] (Tau 0P) was “No change”. Moreover, the “fluorescence intensity change on addition of peptide” value in assay [4] (Tau0P, unphosphorylated) is “no major change was observed”. For the same compound, in assay [5], the “concentration at which fluorescence change occurred” value was “at the lowest concentration”.
